# Test results reported in patent US6355799B1, “Substituted benzene compounds, process for their preparation, and herbicidal and defoliant compositions containing them” (ISK Americas Incorporated, priority 1997, dated 2002).
# Like-named read-outs stand apart in the source and are kept apart here.
# Assays:
# Type in all cases: in vivo
# [1] = tested on: large crabgrass (Digitaria sanguinalis, DIGSA); test: Post-emerge test, greenhouse herbicide activity screening; settings: Digitaria sanguinalis, post-emergence, 336 h, read-out: Post-emerge Herbicidal Activity DIGSA; for pest or weed control at 63 g/ha: 63 g ai/ha; for pest or weed control at 250 g/ha: 250 g ai/ha
# How it was run: (§1)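 Herbicidal damage is scored 0 (none) to 100 (complete plant death) two weeks after a simulated field spray. Rates span 15–1000 g ai/ha, delivered in acetone at 187 l/ha. For post-emergence treatments, plants have 2–3 leaves and the spray carries 0.25% v/v non-ionic surfactant.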
# [2] = tested on: johnsongrass (Sorghum halepense, SORHA); test: as above; settings: Sorghum halepense, post-emergence, 336 h, read-out: Post-emerge Herbicidal Activity SORHA; for pest or weed control at 63 g/ha: 63 g ai/ha; for pest or weed control at 250 g/ha: 250 g ai/ha
# How it was run: as §1
# [3] = tested on: lambsquarters (Chenopodium album, CHEAL); test: as above; settings: Chenopodium album, post-emergence, 336 h, read-out: Post-emerge Herbicidal Activity CHEAL; for pest or weed control at 63 g/ha: 63 g ai/ha; for pest or weed control at 250 g/ha: 250 g ai/ha
# How it was run: as §1
# [4] = tested on: green foxtail (Setaria viridis, SETVI); test: as above; settings: Setaria viridis, post-emergence, 336 h, read-out: Post-emerge Herbicidal Activity SETVI; for pest or weed control at 63 g/ha: 63 g ai/ha; for pest or weed control at 250 g/ha: 250 g ai/ha
# How it was run: as §1
# [5] = tested on: sicklepod (Cassia obtusifolia, CASOB); test: as above; settings: Senna obtusifolia, post-emergence, 336 h, read-out: Post-emerge Herbicidal Activity CASOB; for pest or weed control at 63 g/ha: 63 g ai/ha; for pest or weed control at 250 g/ha: 250 g ai/ha
# How it was run: as §1
# [6] = tested on: redroot pigweed (Amaranthus retroflexus, AMARE); test: as above; settings: Amaranthus retroflexus, post-emergence, 336 h, read-out: Post-emerge Herbicidal Activity AMARE; for pest or weed control at 63 g/ha: 63 g ai/ha; for pest or weed control at 250 g/ha: 250 g ai/ha
# How it was run: as §1
# [7] = tested on: velvetleaf (Abutilon theophrasti, ABUTH); test: as above; settings: Abutilon theophrasti, post-emergence, 336 h, read-out: Post-emerge Herbicidal Activity ABUTH; for pest or weed control at 63 g/ha: 63 g ai/ha; for pest or weed control at 250 g/ha: 250 g ai/ha
# How it was run: as §1
# [8] = tested on: barnyardgrass (Echinochloa crus-galli, ECHCG); test: Pre-emerge test, greenhouse herbicide activity screening; settings: pre-emerge; for Pre-emerge Herbicidal Activity ECHCG (phytotoxicity rating, scale 0-100): rated 14 days after application, 0 = no damage, 100 = complete death
# How it was run: (§2)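 Sandy loam pots; pre-emerge: sown 1 d pre-spray, surface-watered after, then bottom-watered. Post-emerge: sown 8–21 d before, 2–3 leaf stage, + 0.25% v/v NIS, bottom-watered. Acetone, 187 l/ha track spray, 15–1000 g ai/ha. 0–100 injury score, day 14.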
# [9] = tested on: large crabgrass (Digitaria sanguinalis, DIGSA); test: as above; settings: pre-emerge; for Pre-emerge Herbicidal Activity DIGSA (phytotoxicity rating, scale 0-100): rated 14 days after application, 0 = no damage, 100 = complete death
# How it was run: as §2
# [10] = tested on: johnsongrass (Sorghum halepense, SORHA); test: as above; settings: pre-emerge; for Pre-emerge Herbicidal Activity SORHA (phytotoxicity rating, scale 0-100): rated 14 days after application, 0 = no damage, 100 = complete death
# How it was run: as §2
# [11] = tested on: ivyleaf morningglory (Ipomoea hederacea, IPOHE); test: as above; settings: pre-emerge; for Pre-emerge Herbicidal Activity IPOHE (phytotoxicity rating, scale 0-100): rated 14 days after application, 0 = no damage, 100 = complete death
# How it was run: as §2
# [12] = tested on: lambsquarters (Chenopodium album, CHEAL); test: as above; settings: pre-emerge; for Pre-emerge Herbicidal Activity CHEAL (phytotoxicity rating, scale 0-100): rated 14 days after application, 0 = no damage, 100 = complete death
# How it was run: as §2
# [13] = tested on: green foxtail (Setaria viridis, SETVI); test: as above; settings: pre-emerge; for Pre-emerge Herbicidal Activity SETVI (phytotoxicity rating, scale 0-100): rated 14 days after application, 0 = no damage, 100 = complete death
# How it was run: as §2
# [14] = tested on: sicklepod (Cassia obtusifolia, CASOB); test: as above; settings: pre-emerge; for Pre-emerge Herbicidal Activity CASOB (phytotoxicity rating, scale 0-100): rated 14 days after application, 0 = no damage, 100 = complete death
# How it was run: as §2
# [15] = tested on: velvetleaf (Abutilon theophrasti, ABUTH); test: as above; settings: pre-emerge; for Pre-emerge Herbicidal Activity ABUTH (phytotoxicity rating, scale 0-100): rated 14 days after application, 0 = no damage, 100 = complete death
# How it was run: as §2
# [16] = phytotoxicity rating 0-100 (0 no damage, 100 complete death), 14 days after application
# [17] = post-emerge, phytotoxicity rating 0-100 at 14 days after application
smiles,measurement,setting,value
"Cn1c(C(F)(F)F)cc(=O)n(-c2c(F)cc(Cl)c(O)c2N)c1=O [Compound 1-16, 3-(2-amino-4-chloro-6-fluoro-3-hydroxyphenyl)-1-methyl-6-trifluoromethyl-2,4(1H, 3H)-pyrimidinedione]",pest or weed control at 63 g/ha,[1]; [16],0%
same,pest or weed control at 250 g/ha,[1]; [16],0%
same,pest or weed control at 63 g/ha,[2]; [16],0%
same,pest or weed control at 250 g/ha,[2]; [16],0%
same,pest or weed control at 63 g/ha,[3]; [16],30%
same,pest or weed control at 250 g/ha,[3]; [16],60%
same,pest or weed control at 63 g/ha,[4]; [16],0%
same,pest or weed control at 250 g/ha,[4]; [16],0%
same,pest or weed control at 63 g/ha,[5]; [16],0%
same,pest or weed control at 250 g/ha,[5]; [16],0%
same,pest or weed control at 63 g/ha,[6]; [16],30%
same,pest or weed control at 250 g/ha,[6]; [16],70%
same,pest or weed control at 63 g/ha,[7]; [16],30%
same,pest or weed control at 250 g/ha,[7]; [16],50%
same,"Pre-emerge Herbicidal Activity ECHCG (phytotoxicity rating, scale 0-100)",[8]; 63 g ai/ha,0
same,"Pre-emerge Herbicidal Activity ECHCG (phytotoxicity rating, scale 0-100)",[8]; 250 g ai/ha,0
same,"Pre-emerge Herbicidal Activity DIGSA (phytotoxicity rating, scale 0-100)",[9]; 63 g ai/ha,0
same,"Pre-emerge Herbicidal Activity DIGSA (phytotoxicity rating, scale 0-100)",[9]; 250 g ai/ha,0
same,"Pre-emerge Herbicidal Activity SORHA (phytotoxicity rating, scale 0-100)",[10]; 63 g ai/ha,0
same,"Pre-emerge Herbicidal Activity SORHA (phytotoxicity rating, scale 0-100)",[10]; 250 g ai/ha,0
same,"Pre-emerge Herbicidal Activity IPOHE (phytotoxicity rating, scale 0-100)",[11]; 63 g ai/ha,0
same,"Pre-emerge Herbicidal Activity IPOHE (phytotoxicity rating, scale 0-100)",[11]; 250 g ai/ha,0
same,"Pre-emerge Herbicidal Activity CHEAL (phytotoxicity rating, scale 0-100)",[12]; 63 g ai/ha,0
same,"Pre-emerge Herbicidal Activity CHEAL (phytotoxicity rating, scale 0-100)",[12]; 250 g ai/ha,70
same,"Pre-emerge Herbicidal Activity SETVI (phytotoxicity rating, scale 0-100)",[13]; 63 g ai/ha,0
same,"Pre-emerge Herbicidal Activity SETVI (phytotoxicity rating, scale 0-100)",[13]; 250 g ai/ha,0
same,"Pre-emerge Herbicidal Activity CASOB (phytotoxicity rating, scale 0-100)",[14]; 63 g ai/ha,0
same,"Pre-emerge Herbicidal Activity CASOB (phytotoxicity rating, scale 0-100)",[14]; 250 g ai/ha,0
same,"Pre-emerge Herbicidal Activity ABUTH (phytotoxicity rating, scale 0-100)",[15]; 63 g ai/ha,0
same,"Pre-emerge Herbicidal Activity ABUTH (phytotoxicity rating, scale 0-100)",[15]; 250 g ai/ha,0
"Nc1c(O)c(Cl)cc(F)c1N1C(=O)C2=C(CCCC2)C1=O [Compound 8-2, 2-amino-6-chloro-4-fluoro-3-tetrahydrophthalimido)phenol]",pest or weed control at 63 g/ha,[1]; [17],30%
same,pest or weed control at 250 g/ha,[1]; [17],30%
same,pest or weed control at 63 g/ha,[2]; [17],10%
same,pest or weed control at 250 g/ha,[2]; [17],0%
same,pest or weed control at 63 g/ha,[3]; [17],40%
same,pest or weed control at 250 g/ha,[3]; [17],80%
same,pest or weed control at 63 g/ha,[4]; [17],40%
same,pest or weed control at 250 g/ha,[4]; [17],60%
same,pest or weed control at 63 g/ha,[5]; [17],50%
same,pest or weed control at 250 g/ha,[5]; [17],30%
same,pest or weed control at 63 g/ha,[6]; [17],95%
same,pest or weed control at 250 g/ha,[6]; [17],100%
same,pest or weed control at 63 g/ha,[7]; [17],100%
same,pest or weed control at 250 g/ha,[7]; [17],100%
same,pest or weed control at 63 g/ha,"[8]; Echinochloa crus-galli, pre-emergence, 336 h, rate 63 g ai/ha, phytotoxicity rating 0-100 at 14 days after application, read-out: Pre-emerge Herbicidal Activity ECHCG",0%
same,pest or weed control at 250 g/ha,"[8]; Echinochloa crus-galli, pre-emergence, 336 h, rate 250 g ai/ha, phytotoxicity rating 0-100 at 14 days after application, read-out: Pre-emerge Herbicidal Activity ECHCG",40%
same,pest or weed control at 63 g/ha,"[9]; Digitaria sanguinalis, pre-emergence, 336 h, rate 63 g ai/ha, phytotoxicity rating 0-100 at 14 days after application, read-out: Pre-emerge Herbicidal Activity DIGSA",0%
same,pest or weed control at 250 g/ha,"[9]; Digitaria sanguinalis, pre-emergence, 336 h, rate 250 g ai/ha, phytotoxicity rating 0-100 at 14 days after application, read-out: Pre-emerge Herbicidal Activity DIGSA",70%
same,pest or weed control at 63 g/ha,"[10]; Sorghum halepense, pre-emergence, 336 h, rate 63 g ai/ha, phytotoxicity rating 0-100 at 14 days after application, read-out: Pre-emerge Herbicidal Activity SORHA",0%
same,pest or weed control at 250 g/ha,"[10]; Sorghum halepense, pre-emergence, 336 h, rate 250 g ai/ha, phytotoxicity rating 0-100 at 14 days after application, read-out: Pre-emerge Herbicidal Activity SORHA",20%
same,pest or weed control at 63 g/ha,"[11]; Ipomoea, pre-emergence, 336 h, rate 63 g ai/ha, phytotoxicity rating 0-100 at 14 days after application, read-out: Pre-emerge Herbicidal Activity IPOHE",0%
same,pest or weed control at 250 g/ha,"[11]; Ipomoea, pre-emergence, 336 h, rate 250 g ai/ha, phytotoxicity rating 0-100 at 14 days after application, read-out: Pre-emerge Herbicidal Activity IPOHE",0%
same,pest or weed control at 63 g/ha,"[12]; Chenopodium album, pre-emergence, 336 h, rate 63 g ai/ha, phytotoxicity rating 0-100 at 14 days after application, read-out: Pre-emerge Herbicidal Activity CHEAL",80%
same,pest or weed control at 250 g/ha,"[12]; Chenopodium album, pre-emergence, 336 h, rate 250 g ai/ha, phytotoxicity rating 0-100 at 14 days after application, read-out: Pre-emerge Herbicidal Activity CHEAL",100%
same,pest or weed control at 63 g/ha,"[13]; Setaria viridis, pre-emergence, 336 h, rate 63 g ai/ha, phytotoxicity rating 0-100 at 14 days after application, read-out: Pre-emerge Herbicidal Activity SETVI",20%
same,pest or weed control at 250 g/ha,"[13]; Setaria viridis, pre-emergence, 336 h, rate 250 g ai/ha, phytotoxicity rating 0-100 at 14 days after application, read-out: Pre-emerge Herbicidal Activity SETVI",100%
same,pest or weed control at 63 g/ha,"[14]; Senna obtusifolia, pre-emergence, 336 h, rate 63 g ai/ha, phytotoxicity rating 0-100 at 14 days after application, read-out: Pre-emerge Herbicidal Activity CASOB",0%
same,pest or weed control at 250 g/ha,"[14]; Senna obtusifolia, pre-emergence, 336 h, rate 250 g ai/ha, phytotoxicity rating 0-100 at 14 days after application, read-out: Pre-emerge Herbicidal Activity CASOB",90%
same,pest or weed control at 63 g/ha,"[15]; Abutilon theophrasti, pre-emergence, 336 h, rate 63 g ai/ha, phytotoxicity rating 0-100 at 14 days after application, read-out: Pre-emerge Herbicidal Activity ABUTH",80%
same,pest or weed control at 250 g/ha,"[15]; Abutilon theophrasti, pre-emergence, 336 h, rate 250 g ai/ha, phytotoxicity rating 0-100 at 14 days after application, read-out: Pre-emerge Herbicidal Activity ABUTH",100%
